Test results from patent US20100303793A1, “COMBINATION THERAPY FOR CARDIAC REVASCULARIZATION AND CARDIAC REPAIR” (The Board of Regents, The University of Texas Syst, priority 2007, published 2010).
One block for each molecule: values may come before it.

Tests used:
[1] = system: Human coronary artery endothelial (HCAE) cells; test: Invasion of HCAE cells through Matrigel toward bFGF; format: cell-based; details: bFGF 10 ng/ml, 22 h
Description: (§1) The design of experiments to measure invasion and migration of endothelial cells toward the angiogenic factor bFGF (basic fibroblast growth factor) is shown in FIGS. 5A and 6A, respectively. The standard assay used 5×10^4 cells added to the top of the insert in 250 μl of medium. The lower portion of the apparatus contained 750 μl of medium, plus or minus bFGF. […] Transmembrane cell invasion and migration assays were performed using BD FluoroBlok (BD Bioscience, Bedford, Mass.) inserts coated with BD Matrigel Matrix (a biologically active basement membrane preparation) or with fibronectin, respectively. […] (R&D System, Minneapolis, Minn.) (FGF) or medium alone (CTR) were added to the lower chamber of the insert plate as a chemoattractant. The cells were allowed to invade or migrate for 22 hours. Cells were labeled post invasion or post migration with Calcein AM (4 μg/ml) and the fluorescence of the cells that invaded through the BD Matrigel Matrix or migrated to the underside of the insert membrane was measured using a plate reader at 485 nm (excitation) and 530 nm (emission).

[2] = system: Human coronary artery endothelial (HCAE) cells; test: Migration of HCAE cells through fibronectin-coated insert toward bFGF; format: cell-based; details: bFGF 10 ng/ml, 22 h
Description: as §1

AC-23 = test: Binding of biotin-conjugated thrombin to complementary peptide AC-23
Sequence of AC-23 (as listed by the source): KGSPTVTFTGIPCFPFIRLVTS

23C53 = test: Binding of biotin-conjugated thrombin to complementary peptide 23C53
Sequence of 23C53 (as listed by the source): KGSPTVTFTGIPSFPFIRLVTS

[3] = system: Human coronary artery endothelial (HCAE) cells; test: Invasion of HCAE cells through Matrigel toward PDGF; format: cell-based; details: PDGF 10 ng/ml, 22 h
Description: (§2) The design of experiments to measure invasion and migration of endothelial cells toward the angiogenic factor PDGF (platelet-derived growth factor-BB) is shown in FIGS. 7A and 8A respectively. The standard assay used 5×10^4 cells added to the top of the insert in […] of medium. The lower portion of the apparatus contained 750 μl of medium, plus or minus PDGF. […] Transmembrane cell invasion and migration assays were performed using BD FluoroBlok inserts coated with BD Matrigel Matrix (a biologically active basement membrane preparation) or with fibronectin (BD Bioscience, Bedford, Mass.), respectively. […] PDGF [10 ng/ml] (R&D System, Minneapolis, Minn. (PDGF) or medium alone (CTR) were added to the lower chamber of the insert plate as a chemoattractant. The cells were allowed to invade or migrate for 22 hours. Cells were labeled post invasion or post migration with Calcein AM (4 μg/ml) and the fluorescence of the cells that invaded through the BD Matrigel Matrix or migrated to the underside of the insert membrane was measured using a plate reader at 485 nm (excitation) and 530 nm (emission).

[4] = system: Human coronary artery endothelial (HCAE) cells; test: Migration of HCAE cells through fibronectin-coated insert toward PDGF; format: cell-based; details: PDGF 10 ng/ml, 22 h
Description: as §2

Molecule: bFGF: basic fibroblast growth factor, angiogenic factor (R&D System)
bFGF-induced endothelial cell invasion, % of invasion with control medium (CTR) [1]: ~170%
Increase of endothelial cell migration by bFGF compared to control medium not containing bFGF [2]: ~40%

Specific binding of biotin-conjugated thrombin to AC23 (AC-23): bind specifically
Specific binding of biotin-conjugated thrombin to 23C53 (23C53): bind specifically
Molecule: thrombin

B1: PDGF: platelet-derived growth factor-BB, angiogenic factor (R&D System) (protein, UniProt P01127 82-190, looked up)
Platelet-derived growth …: SLGSLTIAEPAMIAECKTRTEVFEISRRLIDRTNANFLVWPPCVEVQRCSGCCNNRNVQCRPTQVQLRPVQVRKIEIVRKKPIFKKATVTLEDHLACKCETVAAARPVT
Effect of PDGF on endothelial cell invasion compared to control medium without PDGF [3]: no effect
Effect of PDGF on endothelial cell migration compared to control (CTR) [4]: no effect
